Test results published in ChEMBL document CHEMBL4229556, “Discovery and development of substituted tyrosine derivatives as Bcl-2/Mcl-1 inhibitors” (Bioorg Med Chem, 2018).

Target: Apoptosis regulator Bcl-2 (Homo sapiens, UniProt P10415)
Test: Inhibition of Bid-BH3 peptide binding to Bcl-2 (unknown origin) after 3 hrs by fluorescence polarization method; call rule not given here

Chain of Apoptosis regulator Bcl-2 (P10415 whole entry): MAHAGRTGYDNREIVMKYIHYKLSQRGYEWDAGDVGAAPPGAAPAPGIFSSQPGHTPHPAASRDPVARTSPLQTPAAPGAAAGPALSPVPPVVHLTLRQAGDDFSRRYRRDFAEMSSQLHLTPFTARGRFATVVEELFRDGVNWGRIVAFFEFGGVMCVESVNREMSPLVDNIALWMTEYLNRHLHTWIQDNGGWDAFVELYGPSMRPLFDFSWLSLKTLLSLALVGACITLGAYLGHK

Ki, Not Active:
Cl.N#Cc1ccc(COc2ccc(C[C@H](N)C(=O)NS(=O)(=O)c3ccc(NCCCc4ccccc4)c([N+](=O)[O-])c3)cc2)cc1, CC(C)(C)OC(=O)N[C@@H](Cc1ccc(OCc2ccc(C#N)cc2)cc1)C(=O)NS(=O)(=O)c1ccc(NC2CCCC2)c([N+](=O)[O-])c1, Cl.N[C@@H](Cc1ccc(OCc2ccc(-c3ccccc3)cc2)cc1)C(=O)NS(=O)(=O)c1ccc(NCCCc2ccccc2)c([N+](=O)[O-])c1, Cl.N[C@@H](Cc1ccc(OCc2ccc(-c3ccccc3)cc2)cc1)C(=O)NS(=O)(=O)c1ccc(NC2CCCCC2)c([N+](=O)[O-])c1, Cc1ccc(-c2ccc(COc3ccc(C[C@H](NC(=O)OC(C)(C)C)C(=O)NS(=O)(=O)c4ccc(NCC5CCCCC5)c([N+](=O)[O-])c4)cc3)cc2)cc1, Cl.N[C@@H](Cc1ccc(OCc2ccccc2)cc1)C(=O)NS(=O)(=O)c1ccc(NCCCc2ccccc2)c([N+](=O)[O-])c1, CC(C)(C)OC(=O)N[C@@H](Cc1ccc(OCc2ccc(Oc3ccccc3)cc2)cc1)C(=O)NS(=O)(=O)c1ccc(NC2CCCCC2)c([N+](=O)[O-])c1, N#Cc1ccc(COc2ccc(C[C@H](NC(=O)c3ccc4ccccc4c3)C(=O)NS(=O)(=O)c3ccc(NCCCc4ccccc4)c([N+](=O)[O-])c3)cc2)cc1, O=C(N[C@@H](Cc1ccc(OCc2ccc(-c3ccccc3)cc2)cc1)C(=O)NS(=O)(=O)c1ccc(NC2CCCCC2)c([N+](=O)[O-])c1)c1ccc2ccccc2c1, Cl.N#Cc1ccc(COc2ccc(C[C@H](N)C(=O)NS(=O)(=O)c3ccc(NC4CCCC4)c([N+](=O)[O-])c3)cc2)cc1, CC(C)(C)OC(=O)N[C@@H](Cc1ccc(OCc2ccccc2)cc1)C(=O)NS(=O)(=O)c1ccc(Cl)c([N+](=O)[O-])c1, Cl.N[C@@H](Cc1ccc(OCc2ccc(-c3ccccc3)cc2)cc1)C(=O)NS(=O)(=O)c1ccc(Cl)c([N+](=O)[O-])c1, CC(C)(C)OC(=O)N[C@@H](Cc1ccc(OCc2ccc(-c3ccccc3)cc2)cc1)C(=O)NS(=O)(=O)c1ccc(NC2CCCCC2)c([N+](=O)[O-])c1, CC(C)(C)OC(=O)N[C@@H](Cc1ccc(OCc2ccc(-c3ccccc3)cc2)cc1)C(=O)NS(=O)(=O)c1ccc(NCCCc2ccccc2)c([N+](=O)[O-])c1
